{"source": "patent US20040019018A1", "about": "“Rigid pyrrolidone modulators of pkc” (priority 2003, published 2004)", "key": {"[1]": {"test_system": "sAPP", "conditions": "cited from earlier work"}, "[2]": {"test_system": "LNCaP prostate cancer cells", "assay": "Induction of apoptosis in LNCaP prostate cancer cells (DAPI staining)", "format": "cell-based", "protocol": "The capacity of inducing apoptosis by compound (1) was evaluated in a model of LNCaP prostate cancer cells. It is well established that in this model phorbol esters (e.g., PMA) activate PKC to induce apoptosis (reference 13). LNCaP cells were treated with compound (1) for 1 h, and apoptosis was assessed 24 h later.\nControl cells or cells infected for 14 h with adenoviruses for LacZ, PKCα, or PKCδ (multiplicity of infection=10 pfu/cell) were treated with different concentrations of compound (1) or PMA for 1 h. Cells were collected 24 h later and stained with DAPI. The incidence of apoptosis in each preparation was analyzed by counting 500 cells and determining the percentage of apoptotic cells. Results are the mean±standard error of three independent experiments.\nIt is well established that PKCα and PKCδ are the isozymes that mediate phorbol ester-induced apoptosis in LNCaP cells (references 13c-e). A model that has been used to assess isozyme-specificity is the overexpression of specific PKCs by an adenoviral system. Infection of LNCaP cells with adenoviruses for PKCs leads to a high expression of the corresponding PKC isozyme, as determined by Western-blot analysis, kinase activity, or [^3H]PDBu binding (reference 13e)."}, "[3]": {"test_system": "113pS K+ channels", "conditions": "cited from earlier work"}, "[4]": {"test_system": "PC12 cells", "conditions": "cited from earlier work"}}, "data": [{"compound": "CN[C@@H]1C[C@H]2O[C@@](C)([C@@H]1OC)n1c3ccccc3c3c4c(c5c6ccccc6n2c5c31)C(=O)NC4", "note": "[Staurosporine]", "values": [{"measurement": "effect on BL-induced sAPP secretion", "setting": "[1]; control and AD fibroblasts", "result": "eliminated the effects of BL"}]}, {"compound": "CCCCCCCCCCCCCC(=O)O[C@@H]1[C@@H](C)[C@@]2(O)[C@@H](C=C(CO)C[C@]3(O)C(=O)C(C)=C[C@@H]23)[C@@H]2C(C)(C)[C@]12OC(C)=O", "note": "[PMA, reference compound]", "values": [{"measurement": "apoptotic effect with control adenovirus", "setting": "[2]; LNCaP cells infected with LacZ adenovirus", "result": "did not affect the apoptotic effect"}, {"measurement": "apoptotic response with overexpression of PKC isozymes", "setting": "[2]; LNCaP cells infected with adenoviruses for PKCα or PKCδ", "result": "marked potentation"}]}, {"compound": "CCCCCCCCC#Cc1ccc2c(c1)C[C@@H](CO)NC(=O)[C@H](C(C)C)N2C", "note": "[BL, (2S, 5S)-8-(1-decynyl)benzolactam]", "values": [{"measurement": "responsiveness of AD fibroblast cell lines to the TEA challenge", "setting": "[3]", "result": "restored the responsiveness"}, {"measurement": "sAPP secretion", "setting": "[4]", "result": "~3", "unit": "fold"}, {"measurement": "sAPP secretion in control fibroblasts", "setting": "[1]; control fibroblasts, 10 μM BL", "result": "significant increases of sAPP secretion"}, {"measurement": "sAPP secretion over basal levels", "setting": "[1]; fibroblasts", "result": "enhance sAPP secretion over basal levels"}]}]}
